Measurements as given in US20180208605A1, “Substituted Aza Compounds as IRAK-4 Inhibitors” (AURIGENE DISCOVERY TECHNOLOGIES LIMITED, priority 2015, published 2018).
Counter-ions that a name gives are not always drawn.

Target: T1, recombinant IRAK-4 kinase (Homo sapiens, UniProt Q9NWZ3)
T1 construct: purchased Millipore, USA
T1 sequence (Q9NWZ3 1-460): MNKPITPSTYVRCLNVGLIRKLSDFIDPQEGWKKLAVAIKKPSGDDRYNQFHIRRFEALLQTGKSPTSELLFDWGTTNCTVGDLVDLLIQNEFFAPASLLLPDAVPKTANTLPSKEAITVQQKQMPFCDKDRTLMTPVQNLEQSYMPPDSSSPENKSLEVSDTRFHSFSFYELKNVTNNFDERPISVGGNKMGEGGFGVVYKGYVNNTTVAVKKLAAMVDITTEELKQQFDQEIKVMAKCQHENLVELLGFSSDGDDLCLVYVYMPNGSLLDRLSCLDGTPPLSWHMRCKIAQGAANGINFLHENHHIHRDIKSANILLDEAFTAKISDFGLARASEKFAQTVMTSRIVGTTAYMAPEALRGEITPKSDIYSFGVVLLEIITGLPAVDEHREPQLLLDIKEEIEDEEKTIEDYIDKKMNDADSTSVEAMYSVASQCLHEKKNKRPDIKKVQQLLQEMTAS
Assay: IRAK-4 Biochemical Assay (TR-FRET, percent inhibition)
Details: TR-FRET, 20 μM ATP, 100 nM Biotin Histone H3; for inhibition at 0.1 µM: read-out: % inhibition of IRAK-4 @0.1 μM, compound at 0.1 μM; for inhibition at 1 µM: read-out: % inhibition of IRAK-4 @ 1 μM, compound at 1 μM
Procedure: Compounds were tested for their potential to inhibit IRAK-4 enzyme in a TR-FRET assay using recombinant IRAK-4 kinase from Millipore, USA. The assay buffer was 50 mM Tris-HCl pH 7.5, 20 mM MgCl2, 1 mM EGTA, 2 mM DTT, 3 mM MnCl2 and 0.01% Tween 20.5 ng of IRAK-4 kinase was used for the assay. After pre-incubation of enzyme with test compound for 30 minutes at room temperature, a substrate mixture containing 100 nM Biotin Histone H3 (Millipore, USA) and 20 μM ATP (Sigma, USA) was added and the reaction was incubated for 30 min. Post incubation, the reaction was stopped by the addition of stop mix containing 40 mM EDTA, 1 nM of Europium-Anti-Phospho-Histone H3 (Ser10) antibody (Perkin Elmer, USA) and 20 nM SureLight Allophycocyanin-Streptavidin (Perkin Elmer, USA). The fluorescence emission at 615 nm and 665 nm were measured at an excitation of 340 nm and the percent inhibition was estimated from the ratio of the fluorescence intensities [(F665/F615)×10000].

inhibition at 0.1 µM [%] | inhibition at 1 µM [%] | % inhibition of IRAK-4 @0.1 μM (compound at 0.1 μM) [%] | % inhibition of IRAK-4 @ 1 μM (compound at 1 μM) [%] | SMILES
98 | 99 |  |  | Cc1cc(-c2ccc(C(=O)Nc3cc4sc(N5CCOCC5)nc4nc3N3CCC(O)(CO)CC3)o2)ccn1 [Example 2, N-(5-(4-hydroxy-4-(hydroxymethyl)piperidin-1-yl)-2-morpholinothiazolo[4,5-b]pyridin-6-yl)-5-(2-methylpyridin-4-yl)furan-2-carboxamide hydrochloride]
97 | 98 |  |  | Cn1cc(-c2nc(C(=O)Nc3cc4sc(N5CCOCC5)nc4nc3N3CCCCC3)co2)ccc1=O [Example 3, 2-(1-methyl-6-oxo-1,6-dihydropyridin-3-yl)-N-(2-morpholino-5-(piperidin-1-yl)thiazolo[4,5-b]pyridin-6-yl)oxazole-4-carboxamide]
99 | 99 |  |  | Cc1cc(-c2ncc(C(=O)Nc3cc4sc(N5CCOCC5)nc4nc3N3CCC(O)(CO)CC3)o2)ccn1 [Example 4, N-(5-(4-hydroxy-4-(hydroxymethyl)piperidin-1-yl)-2-morpholinothiazolo[4,5-b]pyridin-6-yl)-2-(2-methylpyridin-4-yl)oxazole-5-carboxamide hydrochloride]
98 | 99 |  |  | Cc1cc(-c2ccc(C(=O)Nc3cc4sc(N5CCOCC5)nc4nc3N3CCCC(O)(CO)C3)o2)ccn1 (stereo not shown) [Example 5, N-(5-(3-hydroxy-3-(hydroxymethyl)piperidin-1-yl)-2-morpholinothiazolo[4,5-b]pyridin-6-yl)-5-(2-methylpyridin-4-yl)furan-2-carboxamide hydrochloride]
100 | 100 |  |  | Cc1cc(-c2nc(C(=O)Nc3cc4sc(N5CCOCC5)nc4nc3OC3CCC(N4CCOCC4)CC3)co2)ccn1 (stereo not shown) [Example 6, 2-(2-methylpyridin-4-yl)-N-(2-morpholino-5-(((1r,4r)-4-morpholinocyclohexyl)oxy)thiazolo[4,5-b]pyridin-6-yl)oxazole-4-carboxamide hydrochloride]
99 | 99 |  |  | Cc1cc(-c2nc(C(=O)Nc3cc4sc(N5CCNCC5)nc4nc3N3CCCCC3)co2)ccn1 [Example 7, 2-(2-methylpyridin-4-yl)-N-(2-(piperazin-1-yl)-5-(piperidin-1-yl)thiazolo[4,5-b]pyridin-6-yl)oxazole-4-carboxamide hydrochloride]
97 | 98 |  |  | O=C(Nc1cc2sc(N3CCOCC3)nc2nc1N1CCC(O)(CO)CC1)c1cccc(N2CC[C@H](O)C2)n1 [Example 8, (S)-N-(5-(4-hydroxy-4-(hydroxymethyl)piperidin-1-yl)-2-morpholinothiazolo[4,5-b]pyridin-6-yl)-6-(3-hydroxypyrrolidin-1-yl)picolinamide hydrochloride]
101 | 99 |  |  | Cc1cc(-c2nc(C(=O)Nc3cc4sc(N5CCOCC5)nc4nc3N3CCC(O)(CO)C3)co2)ccn1 (stereo not shown) [Example 9, N-(5-(3-hydroxy-3-(hydroxymethyl)pyrrolidin-1-yl)-2-morpholinothiazolo[4,5-b]pyridin-6-yl)-2-(2-methylpyridin-4-yl)oxazole-4-carboxamide hydrochloride]
100 | 100 |  |  | Cc1cc(-c2nc(C(=O)Nc3cc4sc(N5CCN(C(=O)CO)CC5)nc4nc3N3CCCCC3)co2)ccn1 [Example 10, N-(2-(4-(2-hydroxyacetyl)piperazin-1-yl)-5-(piperidin-1-yl)thiazolo[4,5-b]pyridin-6-yl)-2-(2-methylpyridin-4-yl)oxazole-4-carboxamide hydrochloride]
99 | 98 |  |  | Nc1cccc(-c2nc(C(=O)Nc3cc4sc(N5CCOCC5)nc4nc3N3CCCCC3)co2)n1 [Example 11, 2-(6-aminopyridin-2-yl)-N-(2-morpholino-5-(piperidin-1-yl)thiazolo[4,5-b]pyridin-6-yl)oxazole-4-carboxamide hydrochloride]
98 | 98 |  |  | Nc1cc(-c2nc(C(=O)Nc3cc4sc(N5CCOCC5)nc4nc3N3CCCCC3)co2)c(Cl)cn1 [Example 12, 2-(2-amino-5-chloropyridin-4-yl)-N-(2-morpholino-5-(piperidin-1-yl)thiazolo[4,5-b]pyridin-6-yl)oxazole-4-carboxamide]
98 | 98 |  |  | Cn1cc(-c2nc(C(=O)Nc3cc4sc(N5CCOCC5)nc4nc3N3CCCCC3)co2)cc(F)c1=O [Example 13, 2-(5-fluoro-1-methyl-6-oxo-1,6-dihydropyridin-3-yl)-N-(2-morpholino-5-(piperidin-1-yl)thiazolo[4,5-b]pyridin-6-yl)oxazole-4-carboxamide]
99 | 100 |  |  | Cc1ccc(-c2nc3nc(N4CCOCC4)oc3cc2NC(=O)c2coc(-c3ccnc(C)c3)n2)nc1 [Example 14, N-(5-(5-methylpyridin-2-yl)-2-morpholinooxazolo[4,5-b]pyridin-6-yl)-2-(2-methylpyridin-4-yl)oxazole-4-carboxamide]
96 | 100 |  |  | Cc1cc(-c2nc(C(=O)Nc3cc4oc(N5CCOCC5)nc4nc3N3CCCC(O)(CO)C3)co2)ccn1 (stereo not shown) [Example 15, N-(5-(3-hydroxy-3-(hydroxymethyl)piperidin-1-yl)-2-morpholinooxazolo[4,5-b]pyridin-6-yl)-2-(2-methylpyridin-4-yl)oxazole-4-carboxamide hydrochloride]
94 | 99 |  |  | Cc1cc(-c2nc(C(=O)Nc3cc4oc(N5CCOCC5)nc4nc3OC3CCC(N4CCOCC4)CC3)co2)ccn1 (stereo not shown) [Example 16, 2-(2-methylpyridin-4-yl)-N-(2-morpholino-5-(((1r,4r)-4-morpholinocyclohexyl)oxy)oxazolo[4,5-b]pyridin-6-yl)oxazole-4-carboxamide hydrochloride]
 |  | 98 | 99 | O=C(Nc1cc2sc(N3CCOCC3)nc2nc1N1CCCCC1)c1cnn2cccnc12 [Example 19, N-(2-morpholino-5-(piperidin-1-yl)thiazolo[4,5-b]pyridin-6-yl)pyrazolo[1,5-a]pyrimidine-3-carboxamide]
97 | 98 |  |  | Cc1ccc(-c2nc3nc(N4CCOCC4)sc3cc2NC(=O)c2cnn3cccnc23)nc1 [Example 20, N-(5-(5-methylpyridin-2-yl)-2-morpholinothiazolo[4,5-b]pyridin-6-yl)pyrazolo[1,5-a]pyrimidine-3-carboxamide]
97 | 98 |  |  | NC1CCCN(c2ccn3ncc(C(=O)Nc4cc5sc(N6CCOCC6)nc5nc4C4CC4)c3n2)C1 (stereo not shown) [Example 21, 5-(3-aminopiperidin-1-yl)-N-(5-cyclopropyl-2-morpholinothiazolo[4,5-b]pyridin-6-yl)pyrazolo[1,5-a]pyrimidine-3-carboxamide]
97 | 98 |  |  | NCCNc1ccn2ncc(C(=O)Nc3cc4sc(N5CCOCC5)nc4nc3C3CC3)c2n1 [Example 22, 5-((2-aminoethyl)amino)-N-(5-cyclopropyl-2-morpholinothiazolo[4,5-b]pyridin-6-yl)pyrazolo[1,5-a]pyrimidine-3-carboxamide]
86 | 97 |  |  | NC1CCN(c2ccn3ncc(C(=O)Nc4cc5sc(N6CCOCC6)nc5nc4C4CC4)c3n2)C1 (stereo not shown) [Example 23, 5-(3-aminopyrrolidin-1-yl)-N-(5-cyclopropyl-2-morpholinothiazolo[4,5-b]pyridin-6-yl)pyrazolo[1,5-a]pyrimidine-3-carboxamide hydrochloride]
97 | 97 |  |  | O=C(Nc1cc2oc(N3CCOCC3)nc2nc1N1CCCCC1)c1cnn2cccnc12 [Example 24, N-(2-morpholino-5-(piperidin-1-yl)oxazolo[4,5-b]pyridin-6-yl)pyrazolo[1,5-a]pyrimidine-3-carboxamide]
55 | 96 |  |  | O=C(Nc1cc2oc(N3CCOCC3)nc2nc1N1CC[C@@H](O)C1)c1cnn2cccnc12 [Example 25, (R)—N-(5-(3-hydroxypyrrolidin-1-yl)-2-morpholinooxazolo[4,5-b]pyridin-6-yl)pyrazolo[1,5-a]pyrimidine-3-carboxamide]
87 | 92 |  |  | N[C@H]1CCN(c2cccc(C(=O)Nc3cc4sc(N5CCOCC5)nc4nc3N3CCCCC3)n2)C1 [Example 26, (S)-6-(3-aminopyrrolidin-1-yl)-N-(2-morpholino-5-(piperidin-1-yl)thiazolo[4,5-b]pyridin-6-yl)picolinamide]
